Where two headings read alike, the source gives them in different places.
Tests used:
DENV2 NS2B-NS3 protease = target: T1, DENV2 NS2B-NS3 protease (Dengue virus type 2, UniProt P29990); experiment: Protease inhibition assay (FRET peptide substrate); format: biochemical, Dengue virus serotype 2
T1 construct: made in house
Experimental: Protease Inhibition Assay. The protease inhibition assay was performed using the refolded DENV2 NS3 fusion protein (50 nM) and a fluorescence resonance energy transfer (FRET) peptide substrate (100 μM) (Abz-RRRRSAG-nTyr (NeoBiolab)), as described previously. […] 13:e1006411 (2017); and Lang et al., “Analysis of Protein-Protein Interactions by Split Luciferase Complementation Assay,” Curr. Protoc. Toxicol. 82:e (2019), all of which are hereby incorporated by reference in their entirety. Substrate cleavage was monitored at excitation/emission wavelengths of 360 nm/420 nm (Abz substrate) by a BioTek Flx800. The rate of increase in relative fluorescence unit (RFU) over time was calculated in the linear range and normalized as a percent of the DMSO control. The IC50/CC50/EC50 was determined by fitting the dose-responsive curve with a non-linear regression function using the GraphPad Prism 8 (San Diego, Calif.). All experiments were performed in triplicates.
Next, the inhibition efficacy of these positive derivatives were evaluated against the viral NS2B-NS3 protease function as previously described. […] Previously, two versions of the NS3 protease were generated, the NS3 protease domain refolded from inclusion bodies and a soluble version of the NS3 protease domain fused to maltose-binding protein (MBP). […]

DENV2 = experiment: Viral titer (plaque) reduction assay, DENV2 in A549 cells; format: cell-based, Dengue virus serotype 2
Experimental: Viral Titer Reduction Assay. A viral titer reduction assay was used to determine the compounds' effect on DENV2 and ZIKV strains, as described previously. […] Human A549 lung carcinoma cells and human primary neural progenitor cells were used, as described previously. […] 13:e1006411 (2017), which are hereby incorporated by reference in their entirety. All experiments were performed in triplicates.
A viral plaque reduction assay was performed next to evaluate the antiviral efficacy of these derivatives. Human lung carcinoma A549 cells were infected with DENV2 in the presence of a concentration series of derivatives or a dimethyl sulfoxide (DMSO) control, and viral titers were measured at 48 hrs post-infection, as described previously.

[1] = target: T2, DENV2 NS2B-NS3 interaction (Dengue virus type 2, UniProt P29990); experiment: Split luciferase complementation (SLC) NS2B-NS3 interaction assay; format: binding, Dengue virus serotype 2; details: concentration reducing 50% of SLC signal; read-out: IC50-SLC-(DN2)
T2 construct: GST (N); made in house
T2 sequence (P29990 1476-1654): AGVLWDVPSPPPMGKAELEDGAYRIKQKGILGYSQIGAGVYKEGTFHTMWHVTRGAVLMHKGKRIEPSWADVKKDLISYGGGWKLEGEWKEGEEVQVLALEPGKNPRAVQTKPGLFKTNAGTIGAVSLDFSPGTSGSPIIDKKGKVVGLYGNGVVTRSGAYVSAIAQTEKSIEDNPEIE

ZIKV = experiment: Viral titer reduction assay, ZIKV in A549 cells; format: cell-based, Zika virus
Experimental: Viral Titer Reduction Assay. A viral titer reduction assay was used to determine the compounds' effect on DENV2 and ZIKV strains, as described previously. […] Human A549 lung carcinoma cells and human primary neural progenitor cells were used, as described previously. […] All experiments were performed in triplicates.

[2] = WST-8 cell proliferation cytotoxicity assay; format: cell-based, human; details: human
Experimental: (§1) Cytotoxicity Assay. […] All experiments were performed in triplicates.
(§2) To address this concern, next the compound cytotoxicity CC50 was measured using a WST-8 cell proliferation assay, as described previously.

Aqueous solubility = format: physicochemical
[3] = not told
A549 cells = experiment: WST-8 cell proliferation cytotoxicity assay; format: cell-based, human; details: Table 4, preliminary SAR, A549 cells; read-out: CC50
Experimental: as §1, §2

DENV2 replicon = DENV2 replicon assay in BHK-21 cells (Renilla luciferase); format: cell-based, Dengue virus serotype 2; details: Dengue virus, BHK-21 replicon cells, 48 hours, read-out: EC50-DN2 (DENV2 replicon)
Experimental: DENV2 Replicon Assay. […] The cells were incubated at 37° C. in a humidified incubator with 5% CO2 for hrs in a 100 μl medium containing Minimal Essential Medium (MEM) supplemented with 10% fetal bovine serum (FBS), 100 I.U./ml penicillin, 100 g/ml streptomycin, and 300 μg/ml G418. Upon 24 hrs incubation, culture medium was discarded. Fresh culture medium of 100 μl with a concentration series of compounds or DMSO control was added to the cells in triplicates. The culture was further incubated for 48 hours. The cells were then washed twice with 100 μl phosphate-buffered saline (PBS), followed by addition of 25 μl of a lysis buffer containing 1×PBS and 1% Triton X-100. The mixture was incubated at room temperature with gentle shaking (50 rpm) for 30 minutes. Assay buffer (125 μl) containing 1×PBS, 0.05% (3-((3-cholamidopropyl) dimethylammonio)-1-propanesulfonate) (CHAPS), and 0.1% BSA was then added to each well. In the meantime, a fresh 4× working substrate coelenterazine was prepared by diluting 1 μl of stock coelenterazine (2.4 mM) dissolved in ethanol into 10 ml assay buffer (10,000-fold dilution). […] The luminescence was recorded immediately using the Veritas luminometer. The luminescence data was normalized to DMSO control. The EC50 was determined by nonlinear regression fitting of normalized experimental data in GraphPad Prism 8.0 (San Diego, Calif.). […]

in vitro = details: not told, Perme. (cell permeability)
[4] = Pharmacokinetics in B6 mice after oral gavage
Text: Pharmacokinetics. […] Fan et al., “Contributions of Hepatic and Intestinal Metabolism to the Disposition of Niclosamide, a Repurposed Drug with Poor Bioavailability,” Drug Metab. Dispos. 47:756-763 (2019), which is hereby incorporated by reference in its entirety. […] Student's t-test was used. P values<0.05 were considered statistically significant.

[5] = refolded NS3, read-out: IC50-pro (DN2)
[6] = Dengue virus, DENV2, A549 cells, 48 hrs post-infection, read-out: EC50-DN2 (A549)
[7] = Zika virus, A549, read-out: EC50-ZK (A549)
[8] = A549 cells, read-out: CC50 (A549)
[9] = Dengue virus, DENV2, Table 4, preliminary SAR, A549 cells, read-out: EC50-DN2
[10] = Zika virus, A549, read-out: EC50-ZK
[11] = Table 4, preliminary SAR, read-out: IC50-pro(DN2)
[12] = Table 4, preliminary SAR, A549 cells, read-out: EC50-DN2
[13] = Table 4, preliminary SAR, A549 cells, read-out: EC50-ZK
[14] = female, B6, mouse, in vivo, po, 40 mg/kg

T1 sequence (P29990 1476-1654): as above

Row | Compound | IC50 (DENV2 NS2B-NS3 protease; [5]) [µM] | EC50 (DENV2; [6]) [µM] | IC50 [1] [µM] | EC50 (ZIKV; [7]) [µM] | CC50 [2, 8] [µM] | logP (LogP) | EC50 (DENV2; [9]) [µM] | EC50 (ZIKV; [10]) [µM] | other results
1 | O=C(Nc1ccc([N+](=O)[O-])cc1Cl)c1cc(Cl)ccc1OCCN1CCOCC1 [HJC0114] | 33.6 | > 30 | 18.4 | > 30 | > 200 |  |  |  | 
2 | O=C(Nc1ccc([N+](=O)[O-])cc1Cl)c1cc(Cl)ccc1OC1CCNCC1 [HJC0125] | 44.5 | 0.21 | 16.3 | 0.15 | 50.2 |  |  |  | 
3 | Nc1ccc(NC(=O)c2cc(Cl)ccc2O)c(Cl)c1 [HJC0129] | 11.3 | > 30 | 9.6 | > 30 | 176 | 2.76 | > 30 | > 30 | 
4 | CC(=O)Nc1ccc(NC(=O)c2cc(Cl)ccc2O)c(Cl)c1 [HJC0140] |  | > 30 |  | > 30 |  | 2.47 | > 30 | > 30 | 
5 | O=C(Nc1ccc2c(c1)S(=O)(=O)C=C2)c1cc(Cl)ccc1O [HJC0149] | 20.3 | 0.9 | 18.6 | 1.1 | 241 | 2.41 | 0.9 | 1.1 | 
6 | NCCCOc1ccc(Cl)cc1C(=O)Nc1ccc([N+](=O)[O-])cc1Cl [HJC0308] | 39.7 | 1.4 | 4.9 | 6.2 | 17.7 |  |  |  | 
7 | CN1CCN(CCOc2ccc(Cl)cc2C(=O)Nc2ccc([N+](=O)[O-])cc2Cl)CC1 [HJC0365] | > 60 | 6.4 | 13.2 | 6 | 177 |  |  |  | 
8 | CN1CCC(Oc2ccc(Cl)cc2C(=O)Nc2ccc([N+](=O)[O-])cc2Cl)CC1 [HJC0381] | 25.9 | 1.2 | 10.8 | 3.9 | 91.1 | 2.38 | 1.2 | 3.9 | aqueous solubility (Aqueous solubility): significantly improves the aqueous solubility
9 | CC[C@H](N)COc1ccc(Cl)cc1C(=O)Nc1ccc([N+](=O)[O-])cc1Cl [HJC0390] | 46.5 | 0.43 | 6 | < 0.1 | 30.1 |  |  |  | 
10 | NCCCCOc1ccc(Cl)cc1C(=O)Nc1ccc([N+](=O)[O-])cc1Cl [HJC0431] | 34 | 2.2 | 3.1 | 0.36 | 28.4 | 3.9 | 2.2 | 0.36 | aqueous solubility (Aqueous solubility): significantly improves the aqueous solubility
11 | O=C(NC(Cc1ccccc1)C(=O)Nc1ccc([N+](=O)[O-])cc1Cl)c1cc(Cl)ccc1O (stereo not drawn) [JMX0285] |  |  |  |  |  | 3.84 |  |  | IC50 (DENV2 NS2B-NS3 protease; [11]): 5.7 µM; EC50 (DENV2; [12]): 0.48 µM; Perme. (cell permeability) [3]: 0.25 ×10⁻⁶ cm/s; EC50 (ZIKV; [13]): 0.3 µM; CC50 (A549 cells): 16.5 µM
12 | O=C(Nc1ccc(C(F)(F)F)cc1Cl)c1cc(Cl)ccc1O [JMX0308] |  |  |  |  |  | 4.49 |  |  | EC50 (DENV2; [12]): 0.09 µM; Perme. (cell permeability) [3]: 0.27 ×10⁻⁶ cm/s; EC50 (ZIKV; [13]): 0.12 µM
13 | O=C(Nc1cc(F)cc(C(F)(F)F)c1)c1cccc([N+](=O)[O-])c1O [JMX0317] |  |  |  |  |  | 3.26 |  |  | IC50 (DENV2 NS2B-NS3 protease; [11]): 8.4 µM; EC50 (DENV2; [12]): 0.2 µM; Perme. (cell permeability) [3]: 2.9 ×10⁻⁶ cm/s; EC50 (ZIKV; [13]): 0.12 µM; CC50 (A549 cells): 20.4 µM
14 | CC(=O)Oc1ccccc1C(=O)Nc1ncc([N+](=O)[O-])s1 [NTZ, nitazoxanide, reference compound] |  |  |  |  |  |  | 0.3 |  | logP (physchem): 2.14; EC50 (ZIKV; Zika virus, Table 4, preliminary SAR, A549 cells, read-out: EC50-ZK): 1.5 µM; CC50 [2]: 77 µM
15 | O=C(Nc1ccc([N+](=O)[O-])cc1Cl)c1cc(Cl)ccc1O [Niclosamide, reference compound] |  |  | 2 | 0.48 |  |  |  | 0.48 | EC50 (DENV2 replicon): 2 µM; logP (physchem): 3.38; Papp (in vitro): 0.25 ×10⁻⁶ cm/s; EC50 (DENV2; Dengue virus, DENV2, A549, 48 h, read-out: EC50-DN2 (A549)): 0.55 µM; T1/2 ± S.D. ([4]; B6 mice, single oral dose 40 mg/kg, plasma): 4.6 ± 1.0 h; AUC0→∞ ± S.D. [4, 14]: 3.5 ± 0.8; Cmax [4, 14]: 600 nM; Tmax ± S.D. [4, 14]: 0.7 ± 0.4 h; CC50 (A549 cells): 4.8 µM
